Structures are written as SMILES.

Our source for the IC50 and GI50 values is patent publication US9580390B2, “Indazole compounds as kinase inhibitors and method of treating cancer with same” (University Health Network, priority 2011, dated 2017).

In assay [1] the target is T1, human TTK (Homo sapiens, UniProt P33981).
T1 construct: amino terminal GST fusion of full length human TTK; purchased Invitrogen
T1 sequence (P33981 1-857): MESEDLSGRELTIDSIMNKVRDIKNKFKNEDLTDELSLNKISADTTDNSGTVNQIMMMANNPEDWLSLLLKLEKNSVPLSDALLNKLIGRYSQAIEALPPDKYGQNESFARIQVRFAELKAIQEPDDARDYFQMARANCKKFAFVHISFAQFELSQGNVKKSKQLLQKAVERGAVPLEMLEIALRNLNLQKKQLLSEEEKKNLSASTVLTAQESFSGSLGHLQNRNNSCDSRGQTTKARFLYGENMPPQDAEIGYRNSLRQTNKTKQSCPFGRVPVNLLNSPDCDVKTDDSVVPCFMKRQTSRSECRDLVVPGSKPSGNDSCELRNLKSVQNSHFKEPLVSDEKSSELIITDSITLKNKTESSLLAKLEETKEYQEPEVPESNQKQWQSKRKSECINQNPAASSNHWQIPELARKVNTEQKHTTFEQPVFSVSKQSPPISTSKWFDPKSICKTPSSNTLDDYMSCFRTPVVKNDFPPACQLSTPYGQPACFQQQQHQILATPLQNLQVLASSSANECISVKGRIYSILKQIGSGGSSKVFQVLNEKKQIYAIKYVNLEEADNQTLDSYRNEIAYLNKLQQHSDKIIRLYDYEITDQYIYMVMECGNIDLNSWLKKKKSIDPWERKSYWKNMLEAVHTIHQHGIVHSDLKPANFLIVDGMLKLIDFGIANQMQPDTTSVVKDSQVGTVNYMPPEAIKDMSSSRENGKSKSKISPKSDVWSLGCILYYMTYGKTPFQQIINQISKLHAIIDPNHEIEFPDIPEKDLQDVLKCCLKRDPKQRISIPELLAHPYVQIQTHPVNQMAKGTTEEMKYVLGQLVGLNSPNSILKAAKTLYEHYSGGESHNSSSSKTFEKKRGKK
Kind of assay: TTK inhibition assay (indirect ELISA). Type of assay: biochemical. To be noted: read-out: TTK IC50 Range.

Assay [2] has as its system Breast cancer cells. Nature of the assay: Cancer cell line growth inhibition (SRB assay). The class given is cell-based. Conditions: Homo sapiens; MDA-MB-468; read-out: Cancer Cell Line GI50 Range MDA-MB-468.
For assay [3], the system named is colon cancer cells (HCT116). Nature of the assay: Cancer cell line growth inhibition (SRB assay). Type of assay: cell-based. Conditions: Homo sapiens, HCT-116; read-out: Cancer Cell Line GI50 Range HCT116.
For assay [4], the system named is ovarian cancer cells (PA-1). Kind of assay: Cancer cell line growth inhibition (SRB assay). The class given is cell-based. Conditions: Homo sapiens, PA-1; read-out: Cancer Cell Line GI50 Range PA-1.
Assay [5] deals with T2, human PLK4 (Homo sapiens, UniProt O00444).
T2 construct: amino terminal GST fusion of residues 1-391 of human PLK4; made in house; host or cells: E. coli
T2 sequence (O00444 1-391): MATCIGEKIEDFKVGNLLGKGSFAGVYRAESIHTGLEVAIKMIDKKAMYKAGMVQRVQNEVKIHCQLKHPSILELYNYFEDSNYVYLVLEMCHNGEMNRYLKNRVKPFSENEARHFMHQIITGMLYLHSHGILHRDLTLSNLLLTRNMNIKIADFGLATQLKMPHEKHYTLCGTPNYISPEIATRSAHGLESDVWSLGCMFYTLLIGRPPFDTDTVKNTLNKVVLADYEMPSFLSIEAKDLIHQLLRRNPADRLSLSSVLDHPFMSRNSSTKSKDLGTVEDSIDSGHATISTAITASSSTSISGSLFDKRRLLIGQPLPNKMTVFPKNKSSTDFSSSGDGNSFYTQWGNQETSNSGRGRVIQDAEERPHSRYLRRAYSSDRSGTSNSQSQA
Kind of assay: PLK4 inhibition assay (indirect ELISA). Type of assay: biochemical. Conditions: 15 μM ATP. The method, then:
Active PLK4 was purified from an E. coli expression system as an amino terminal GST fusion of residues 1-391 of human PLK4. The protein was purified from clarified cell extracts after induction at 15° C. overnight using glutathione sepharose, gel permeation chromatography, and ion exchange (Resource Q). The resulting protein was dephosphorylated with lambda phosphatase (NEB cat# P0753), and resolved from the phosphatase using gluthione sepharose. The dephosphorylated GST-PLK4 was stored in aliquots at −80° C. until use.
PLK4 activity was measured using an indirect ELISA detection system. Dephosphorylated GST-PLK4 (4 nM) was incubated in the presence of 15 μM ATP (Sigma cat# A7699), 50 mM HEPES-[…] pH 7.4, 10 mM MgCl2, 0.01% Brij 35 (Sigma cat# 03-3170), in a 96 well microtitre plate pre-coated with MBP (Millipore cat#30-011). The reaction was allowed to proceed for 30 minutes, followed by 5 washes of the plate with Wash Buffer (50 mM TRIS-Cl pH 7.4 and 0.2% Tween 20), and incubation for 30 minutes with a 1:3000 dilution of primary antibody (Cell Signaling cat# 9381). The plate was washed 5 times with Wash Buffer, incubated for 30 minutes in the presence of secondary antibody coupled to horse radish peroxidase (BioRad cat# 1721019, 1:3000 concentration), washed an additional 5 times with Wash Buffer, and incubated in the presence of TMB substrate (Sigma cat# T0440). The colourimetric reaction was allowed to continue for 5 minutes, followed by addition of stop solution (0.5 N sulphuric acid), and quantified by detection at 450 nm with either a monochromatic or filter based plate reader (Molecular Devices M5 or Beckman DTX880, respectively).
Compound inhibition was determined at either a fixed concentration (10 μM) or at a variable inhibitor concentration (typically 50 μM to 0.1 μM in a 10 point dose response titration). Compounds were pre-incubated in the presence of enzyme for 15 minutes prior to addition of ATP and the activity remaining quantified using the above described activity assay. The % Inhibition of a compound was determined using the following formula: % Inhibition=100×(1−(experimental value−background value)/(high activity control−background value)). The IC50 value was determined using a non-linear 4 point logistic curve fit (XLfit4, IDBS) with the formula: (A+(B/(1+((x/C)^D)))), where A=background value, B=range, C=inflection point, D=curve fit parameter.

Take `CC(C)C(NC(=O)c1ccc2[nH]nc(-c3ccc(O[C@H]4C[C@H]5CC[C@@H](C4)N5C)cc3)c2c1)c1ccccc1` (stereo partly drawn) [Example A285, N-(2-methyl-1-phenylpropyl)-3-(4-(((1R,3R,5S)-8-methyl-8-azabicyclo[3.2.1]octan-3-yl)oxy)phenyl)-1H-indazole-5-carboxamide]: the results for the IC50 in assay [1] and in assay [5] were less than 100 nM and less than 50 nM, respectively. The GI50 in assay [2] is 100 to 500 nM; in assay [3] it was less than 100 nM; in assay [4], less than 100 nM.

In the case of `CN1CCC2(CCc3cc(-c4n[nH]c5ccc(C(=O)N[C@H](c6ccccn6)C6CCCC6)cc45)ccc3O2)CC1` [Example A253, (S)-N-(cyclopentyl(pyridin-2-yl)methyl)-3-(1′-methylspiro[chroman-2,4′-piperidin]-6-yl)-1H-indazole-5-carboxamide], the IC50 was less than 100 nM in assay [1] and less than 50 nM in assay [5]. Besides, the GI50 was 100 to 500 nM in assay [2], less than 100 nM in assay [3] and less than 100 nM in assay [4].

For `O=C(N[C@H](CCO)c1ccccc1)c1ccc2[nH]nc(-c3ccc(N4[C@@H]5CC[C@H]4COC5)cc3)c2c1` [Example A423, 3-(4-((1R,5S)-3-oxa-8-azabicyclo[3.2.1]octan-8-yl)phenyl)-N-((R)-3-hydroxy-1-phenylpropyl)-1H-indazole-5-carboxamide], the IC50 in assay [1] was less than 100 nM; in assay [5] it was less than 50 nM. The concentration for 50% growth inhibition (GI50) in assay [2], in assay [3] and in assay [4] was less than 100 nM each time.

`O=C(NCC1(c2ccccc2)COC1)c1ccc2[nH]nc(-c3ccc(OC4CCN(C5COC5)CC4)cc3)c2c1` [Example A487, 3-(4-((1-(oxetan-3-yl)piperidin-4-yl)oxy)phenyl)-N-((3-phenyloxetan-3-yl)methyl)-1H-indazole-5-carboxamide]: the IC50 in assay [1] is less than 100 nM; in assay [5], less than 50 nM. The GI50 in assay [2], in assay [3] and in assay [4] was more than 500 nM each time.

As for `CN1C2COCC1CC(Oc1ccc(-c3n[nH]c4ccc(C(=O)NC(c5ccccc5)C5CC5)cc34)cc1)C2` [Example A387, N-(cyclopropyl(phenyl)methyl)-3-(4-(((1R,5S,7s)-9-methyl-3-oxa-9-azabicyclo[3.3.1]nonan-7-yl)oxy)phenyl)-1H-indazole-5-carboxamide], the concentration for half-maximal inhibition (IC50) in assay [1] was less than 100 nM; in assay [5], less than 50 nM. The GI50 is more than 500 nM in assay [2], less than 100 nM in assay [3] and less than 100 nM in assay [4].

For the compound `CN1[C@@H]2CC[C@H]1C[C@@H](Oc1ccc(-c3n[nH]c4ccc(C(=O)NCC5(c6cccs6)CCOCC5)cc34)cc1)C2` [Example A445, 3-(4-(((1R,3R,5S)-8-methyl-8-azabicyclo[3.2.1]octan-3-yl)oxy)phenyl)-N-((4-(thiophen-2-yl)tetrahydro-2H-pyran-4-yl)methyl)-1H-indazole-5-carboxamide], the IC50 is less than 100 nM in assay [1] and less than 50 nM in assay [5]. Moreover, the GI50 was 100 to 500 nM in assay [2], less than 100 nM in assay [3] and less than 100 nM in assay [4].

Turning to `CC(C)[C@H](NC(=O)c1ccc2[nH]nc(-c3ccc4c(c3)CCC3(CCN(C)CC3)O4)c2c1)c1ccccc1Cl` [Example A250, (S)-N-(1-(2-chlorophenyl)-2-methylpropyl)-3-(1′-methylspiro[chroman-2,4′-piperidin]-6-yl)-1H-indazole-5-carboxamide], the IC50 is less than 100 nM in assay [1] and less than 50 nM in assay [5]. The 50% growth inhibitory concentration (GI50) was 100 to 500 nM in assay [2], less than 100 nM in assay [3] and less than 100 nM in assay [4].

On to `CC(C)C[C@H](NC(=O)c1ccc2[nH]nc(-c3ccc(N4C5COCC4CC(O)C5)cc3)c2c1)c1ccccc1Cl` (stereo partly drawn) [Example A424, N-((S)-1-(2-chlorophenyl)-3-methylbutyl)-3-(4-((1R,5S,7R)-7-hydroxy-3-oxa-9-azabicyclo[3.3.1]nonan-9-yl)phenyl)-1H-indazole-5-carboxamide], for which the IC50 in assay [1] was less than 100 nM; in assay [5], less than 50 nM. In addition, the GI50 in assay [2], in assay [3] and in assay [4] was less than 100 nM throughout.

Turning to `CN1[C@@H]2CC[C@H]1C[C@@H](Oc1ccc(-c3n[nH]c4ccc(C(=O)NC(c5ccccc5Cl)C5CC5)cc34)cc1)C2` (stereo partly drawn) [Example A280, N-((2-chlorophenyl)(cyclopropyl)methyl)-3-(4-(((1R,3R,5S)-8-methyl-8-azabicyclo[3.2.1]octan-3-yl)oxy)phenyl)-H-indazole-5-carboxamide], the IC50 in assay [1] is less than 100 nM; in assay [5], less than 50 nM. In addition, the concentration for 50% growth inhibition (GI50) was 100 to 500 nM in assay [2], less than 100 nM in assay [3] and less than 100 nM in assay [4].

As to `CN1C2CCC1CC(Oc1ccc(-c3n[nH]c4ccc(C(=O)N[C@H](c5ccsc5)C5CCCC5)cc34)cc1)C2` (stereo partly drawn) [Example A248, N-((S)-cyclopentyl(thiophen-3-yl)methyl)-3-(4-(((1R,3R,5S)-8-methyl-8-azabicyclo[3.2.1]octan-3-yl)oxy)phenyl)-1H-indazole-5-carboxamide], the IC50 in assay [1] is less than 100 nM; in assay [5] it was less than 50 nM. For the same compound, the GI50 in assay [2], in assay [3] and in assay [4] was 100 to 500 nM in each case.

Take `CN1CCC2(CCc3cc(-c4n[nH]c5ccc(C(=O)N[C@H](c6ccccc6)C6CC6)cc45)ccc3O2)CC1` [Example A249, (S)-N-(cyclopropyl(phenyl)methyl)-3-(1′-methylspiro[chroman-2,4′-piperidin]-6-yl)-1H-indazole-5-carboxamide]: the IC50 in assay [1] was less than 100 nM; in assay [5], less than 50 nM. In addition, the 50% growth inhibitory concentration (GI50) in assay [2], in assay [3] and in assay [4] was 100 to 500 nM each time.

Consider `CN1[C@@H]2CCC[C@H]1C[C@@H](Oc1ccc(-c3n[nH]c4ccc(C(=O)NC(c5ccccc5)C5CC5)cc34)cc1)C2` (stereo partly drawn) [Example A390, N-(cyclopropyl (phenyl)methyl)-3-(4-(((1R,3R,5S)-9-methyl-9-azabicyclo[3.3.1]nonan-3-yl)oxy)phenyl)-1 H-indazole-5-carboxamide], for which the IC50 is less than 100 nM in assay [1] and less than 50 nM in assay [5]. Also, the results for the GI50 in assay [2], in assay [3] and in assay [4] were 100 to 500 nM, less than 100 nM and less than 100 nM, respectively.
